Results taken from ChEMBL document CHEMBL3885861, “Open TG-GATES”.

Organism: Rattus norvegicus
Assay: Open TG-GATES - Regimen: Daily Repeat
Assay type: toxicity, organism-based, Sprague-Dawley
Design: regimen Daily Repeat, gender Male, age 6 weeks
Conditions: in vivo, po, route gavage; for APTT / Bas / Eos / Fbg / Ht / Lym / MCHC / MCV / Mono / RBC / Ret / WBC / Hb / Neu: tissue Blood; for KIDNEY_L / KIDNEY_R / KIDNEY_TOTAL: tissue Kidney; for ALP / ALT / AST / BUN / CRE / Ca / Cl / DBIL / GLC / IP / K / PL / RALB / TBIL / TC / TG / TP / gamma-GTP: tissue Plasma
[1] = 0 mg/kg, 72 h, dose level Control, time 3 day
[2] = 0 mg/kg, […], dose level Control, time 7 day
[3] = 0 mg/kg, […], dose level Control, time 14 day
[4] = 0 mg/kg, […], dose level Control, time 28 day
[5] = 20 mg/kg, 72 h, dose level Low, time 3 day
[6] = 20 mg/kg, […], dose level Low, time 7 day
[7] = 20 mg/kg, […], dose level Low, time 14 day
[8] = 20 mg/kg, […], dose level Low, time 28 day
[9] = 60 mg/kg, 72 h, dose level Middle, time 3 day

## CCCCC1C(=O)N(c2ccccc2)N(c2ccccc2)C1=O [PHENYLBUTAZONE]
[1]
  TERMINAL_BW: 239.7 g
  APTT: 16.9 s
  Bas: 0%
  Eos: 1%
  Fbg: 233.4 mg/dL
  Ht: 42.7%
  Lym: 81.6%
  MCHC: 33.3%
  MCV: 63.6 fL
  Mono: 5.6%
  RBC: 672.8 x10_4/ul
  Ret: 7.3%
  WBC: 131.2 x10_2/uL
  KIDNEY_L: 1.1 g
  KIDNEY_R: 1.1 g
  KIDNEY_TOTAL: 2.2 g
  ALP: 868 IU/L
  ALT: 35.2 IU/L
  AST: 61 IU/L
  BUN: 17.4 mg/dL
  CRE: 0.6 mg/dL
  Ca: 10.6 mg/dL
  Cl: 105 meq/L
  DBIL: 0 mg/dL
  GLC: 195.2 mg/dL
  IP: 9 mg/dL
  K: 5.1 meq/L
  PL: 170.6 mg/dL
  RALB: 4 g/dL
  TBIL: 0.3 mg/dL
  TC: 86.6 mg/dL
  TG: 136.4 mg/dL
  TP: 6.1 g/dL
  gamma-GTP: 1.6 IU/L
[2]
  TERMINAL_BW: 268.9 g
  APTT: 15.7 s
  Bas: 0%
  Eos: 0.8%
  Fbg: 242.2 mg/dL
  Hb: 13.9 g/dL
  Ht: 42.1%
  Lym: 84.2%
  MCHC: 33.1%
  MCV: 62.4 fL
  Mono: 6.6%
  Neu: 8.8%
  RBC: 674.8 x10_4/ul
  Ret: 5.4%
  WBC: 155.4 x10_2/uL
  KIDNEY_L: 1.2 g
  KIDNEY_R: 1.1 g
  KIDNEY_TOTAL: 2.3 g
  ALP: 919.6 IU/L
  ALT: 35.6 IU/L
  AST: 69 IU/L
  BUN: 18.8 mg/dL
  CRE: 0.5 mg/dL
  Ca: 10.6 mg/dL
  Cl: 105.4 meq/L
  DBIL: 0.006 mg/dL
  GLC: 210.8 mg/dL
  IP: 8.9 mg/dL
  K: 4.9 meq/L
  RALB: 3.9 g/dL
  TBIL: 0.3 mg/dL
  TC: 74.4 mg/dL
  TG: 112.6 mg/dL
  TP: 6.6 g/dL
  gamma-GTP: 1.8 IU/L
[3]
  TERMINAL_BW: 318.1 g
  APTT: 16.4 s
  Bas: 0%
  Eos: 0.6%
  Fbg: 227.8 mg/dL
  Hb: 15 g/dL
  Ht: 44.8%
  Lym: 84.8%
  MCHC: 33.6%
  MCV: 62.7 fL
  Mono: 4.2%
  Neu: 10.2%
  RBC: 714.8 x10_4/ul
  Ret: 4.4%
  WBC: 131.9 x10_2/uL
  KIDNEY_L: 1.2 g
  KIDNEY_R: 1.2 g
  KIDNEY_TOTAL: 2.3 g
  ALP: 748 IU/L
  ALT: 31.4 IU/L
  AST: 57.8 IU/L
  BUN: 19.6 mg/dL
  CRE: 0.6 mg/dL
  Ca: 10.5 mg/dL
  Cl: 108 meq/L
  DBIL: 0.016 mg/dL
  GLC: 207.4 mg/dL
  IP: 7.9 mg/dL
  K: 4.7 meq/L
  PL: 160.4 mg/dL
  RALB: 4 g/dL
  TBIL: 0.3 mg/dL
  TC: 79.2 mg/dL
  TG: 177.6 mg/dL
  TP: 6.2 g/dL
  gamma-GTP: 1.2 IU/L
[4]
  TERMINAL_BW: 373 g
  APTT: 16 s
  Bas: 0%
  Eos: 1%
  Fbg: 233 mg/dL
  Hb: 15.7 g/dL
  Ht: 46.9%
  Lym: 82.8%
  MCHC: 33.4%
  MCV: 56.2 fL
  Mono: 4.2%
  RBC: 835.8 x10_4/ul
  Ret: 2.1%
  WBC: 151.8 x10_2/uL
  KIDNEY_L: 1.4 g
  KIDNEY_R: 1.4 g
  KIDNEY_TOTAL: 2.7 g
  ALP: 692.8 IU/L
  ALT: 33 IU/L
  AST: 62 IU/L
  BUN: 20.2 mg/dL
  CRE: 0.6 mg/dL
  Ca: 10.1 mg/dL
  Cl: 107.6 meq/L
  DBIL: 0.008 mg/dL
  GLC: 200 mg/dL
  IP: 6.8 mg/dL
  K: 4.5 meq/L
  RALB: 3.9 g/dL
  TBIL: 0.3 mg/dL
  TC: 61 mg/dL
  TG: 170.2 mg/dL
  TP: 6.4 g/dL
  gamma-GTP: 2 IU/L
[5]
  TERMINAL_BW: 234.1 g
  APTT: 16.6 s
  Bas: 0%
  Eos: 1%
  Fbg: 220 mg/dL
  Ht: 42.6%
  Lym: 76.6%
  MCHC: 33.4%
  MCV: 66.3 fL
  Mono: 8.4%
  Neu: 14%
  RBC: 643.4 x10_4/ul
  Ret: 7.4%
  WBC: 137.6 x10_2/uL
  KIDNEY_L: 1 g
  KIDNEY_R: 1 g
  KIDNEY_TOTAL: 2 g
  ALP: 895.4 IU/L
  ALT: 37.2 IU/L
  AST: 63.2 IU/L
  BUN: 16 mg/dL
  CRE: 0.6 mg/dL
  Ca: 10.4 mg/dL
  Cl: 106.4 meq/L
  DBIL: 0 mg/dL
  GLC: 195.6 mg/dL
  IP: 8.1 mg/dL
  K: 4.9 meq/L
  PL: 170.4 mg/dL
  RALB: 4 g/dL
  TBIL: 0.3 mg/dL
  TC: 86.2 mg/dL
  TG: 125.8 mg/dL
  TP: 6 g/dL
  gamma-GTP: 1.6 IU/L
[6]
  TERMINAL_BW: 263.4 g
  APTT: 16.5 s
  Bas: 0%
  Eos: 0.8%
  Fbg: 229.8 mg/dL
  Hb: 14.3 g/dL
  Ht: 42.8%
  Lym: 85.2%
  MCHC: 33.5%
  MCV: 64.2 fL
  Mono: 5%
  Neu: 8.8%
  RBC: 668 x10_4/ul
  Ret: 5.4%
  KIDNEY_L: 1.2 g
  KIDNEY_R: 1.2 g
  KIDNEY_TOTAL: 2.4 g
  ALP: 882.4 IU/L
  ALT: 30 IU/L
  AST: 61.4 IU/L
  BUN: 18.6 mg/dL
  CRE: 0.5 mg/dL
  Ca: 10.5 mg/dL
  Cl: 105.8 meq/L
  DBIL: 0 mg/dL
  GLC: 193.6 mg/dL
  IP: 7.7 mg/dL
  K: 5.2 meq/L
  RALB: 4 g/dL
  TBIL: 0.3 mg/dL
  TC: 77 mg/dL
  TG: 119 mg/dL
  TP: 6.7 g/dL
  gamma-GTP: 1.4 IU/L
[7]
  TERMINAL_BW: 327.9 g
  APTT: 16.2 s
  Bas: 0%
  Eos: 0.8%
  Fbg: 226.8 mg/dL
  Hb: 14.8 g/dL
  Ht: 44.2%
  Lym: 85%
  MCHC: 33.5%
  MCV: 62.7 fL
  Mono: 4.4%
  Neu: 10%
  RBC: 705.2 x10_4/ul
  Ret: 5.1%
  WBC: 153 x10_2/uL
  KIDNEY_L: 1.3 g
  KIDNEY_R: 1.3 g
  KIDNEY_TOTAL: 2.6 g
  ALP: 735.2 IU/L
  ALT: 27.6 IU/L
  AST: 57.2 IU/L
  BUN: 20.4 mg/dL
  CRE: 0.6 mg/dL
  Ca: 10.8 mg/dL
  Cl: 107.6 meq/L
  DBIL: 0.002 mg/dL
  GLC: 201 mg/dL
  IP: 8.2 mg/dL
  K: 5 meq/L
  RALB: 4 g/dL
  TBIL: 0.3 mg/dL
  TC: 71 mg/dL
  TG: 165.4 mg/dL
  TP: 6.2 g/dL
  gamma-GTP: 1.2 IU/L
[8]
  TERMINAL_BW: 390.6 g
  APTT: 15.5 s
  Bas: 0%
  Eos: 0.4%
  Fbg: 239.4 mg/dL
  Hb: 15.3 g/dL
  Ht: 45.7%
  Lym: 85.4%
  MCHC: 33.5%
  MCV: 58.2 fL
  Mono: 4%
  RBC: 786.8 x10_4/ul
  Ret: 2.4%
  WBC: 138.6 x10_2/uL
  KIDNEY_L: 1.4 g
  KIDNEY_R: 1.4 g
  KIDNEY_TOTAL: 2.7 g
  ALP: 633.6 IU/L
  ALT: 31.6 IU/L
  AST: 57.8 IU/L
  BUN: 21 mg/dL
  CRE: 0.6 mg/dL
  Ca: 10.5 mg/dL
  Cl: 106.8 meq/L
  DBIL: 0.012 mg/dL
  GLC: 193.2 mg/dL
  IP: 7.3 mg/dL
  K: 4.3 meq/L
  RALB: 4.2 g/dL
  TBIL: 0.3 mg/dL
  TC: 65.2 mg/dL
  TG: 208.8 mg/dL
  TP: 6.5 g/dL
  gamma-GTP: 1.8 IU/L
[9]
  TERMINAL_BW: 231.9 g
  APTT: 17.3 s
  Bas: 0%
